Measured values published in US9889176B2, “Treating renal and liver dysfunction with TLR4 antagonists” (YAQRIT LIMITED, priority 2010, dated 2018).

Key:
[1] = tested on: bile duct ligated (BDL) rat; assay: Bile duct ligated (BDL) rat model of cirrhosis with or without LPS: renal dysfunction, selective gut decontamination; type: in vivo, Sprague-Dawley rats; details: for kidney TLR4 protein expression (Western Blot) / plasma creatinine: Norfloxacin 20 mg/kg orally for 10 days; for kidney TLR4 protein expression (Western Blot): FIG. 9; for NFkBp65 expression in Kidney: FIG. 10; for plasma creatinine: FIG. 8
Source text: These experiments utilised an established animal model of cirrhosis, the bile duct ligated (BDL) rat. BDL rats may be generated by methods known in the art. For example, male Sprague-Dawley rats (200-250 g) may be used for this procedure. Following anaesthetisation, a mid-line laparotamy may be performed, the bile duct exposed, triply ligated with 4.0 silk suture, and severed between the second and third ligature. The wound is then closed in layers with absorbable suture, and the animal allowed to recover in a quiet room before being returned to the animal storage facility. 6 groups of Sprague-Dawley rats were studied: n=6 in each group. […] The aims of this study was to determine (1) Whether cirrhosis is associated with an upregulation of TLR4, NFkB and proinflammatory cytokines in kidney. […] Biochemistry: Functional aspect of Kidneys was assessed by measuring plasma creatinine. Protein expression of TLR4 and NFkBp65 was assessed using a commonly used Western Blot technique. Localisation of TLR4 and Caspase (effector protein leading to cell death) was done by Immunohistochemistry. Cytokines were quantified using the ELISA bead array.

BDL rats = assay: Brain TLR4 expression, brain water and survival in BDL rats with or without LPS; type: in vivo; details: for brain TLR4 immunohistochemistry: FIG. 23
Source text: These experiments utilised an established animal model of cirrhosis, the bile duct ligated (BDL) rat. BDL rats may be generated by methods known in the art. For example, male Sprague-Dawley rats (200-250 g) may be used for this procedure. Following anaesthetisation, a mid-line laparotamy may be performed, the bile duct exposed, triply ligated with 4.0 silk suture, and severed between the second and third ligature. The wound is then closed in layers with absorbable suture, and the animal allowed to recover in a quiet room before being returned to the animal storage facility. 6 groups of Sprague-Dawley rats were studied: n=6 in each group. […] Experiments were carried out using Sham treated and BDL rats as described above.

[2] = BDL and BDL+LPS groups, FIG. 13

## CCn1cc(C(=O)O)c(=O)c2cc(F)c(N3CCNCC3)cc21 [Norfloxacin]
[1]; BDL and BDL+LPS groups, FIG. 11
  kidney TNFα: prevented the rise
[1]; BDL and BDL+LPS groups, FIG. 12
  Kidney IL6 (local IL6 production): no effect
[1]; [2]
  plasma IL6 (systemic proinflammatory cytokine): reducing the secretion of cytokines
  plasma TNFα (systemic proinflammatory cytokine): reducing the secretion of cytokines
[1]; BDL and BDL+LPS groups, FIG. 16
  kidney caspase 3 (cell death), immunohistochemistry: reduction in the caspase positivity
[1]; BDL group administered LPS, p=0.02
  kidney TLR4 protein expression (Western Blot): reduced
[1]; BDL rats administered LPS, p=0.01
  NFkBp65 expression in Kidney: attenuated
[1]; BDL rats, p=0.02
  plasma creatinine: reduction
  kidney TLR4 protein expression (Western Blot): reduced
  NFkBp65 expression in Kidney: attenuated
[1]; BDL rats, selective gut decontamination
  renal failure induced by LPS: prevents renal failure
[1]; BDL+LPS rats, p=0.03
  plasma creatinine: reduction
BDL rats; BDL animals treated with LPS
  brain TLR4 immunohistochemistry: could be prevented
BDL rats; BDL animals
  brain TLR4 immunohistochemistry: could be prevented
BDL rats; increase in BDL and BDL+LPS rats, FIG. 22
  brain TLR4 protein expression: could be prevented
BDL rats; increase in BDL and BDL+LPS rats, FIG. 24
  brain swelling measured by brain water: could be prevented
